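Dose response: 5 concentrations. Exposure: 48 h. Format: 96-well plates. Endpoint: linear interpolation; highest concentration if not reached. GI50: concentration for 50% inhibition of growth.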 Calls of active or inactive are those of the source. Cut-off read from the data, not from the text of the source: active = GI50 up to about 1.1 µM and inactive = higher.
What was measured:
Experiment in all cases: DTP human tumour cell line panel, 48 h
M19-MEL = tested on: M19-MEL
HT-29 = tested on: HT-29
DMS-273 = tested on: DMS-273
K562 = tested on: K562
UO-31 = tested on: UO-31
NCI-H23 = tested on: NCI-H23
OVCAR-4 = tested on: OVCAR-4
HOP-62 = tested on: HOP-62
HOP-92 = tested on: HOP-92
SF-295 = tested on: SF-295
A549 = tested on: A549
LXFL 529 = tested on: LXFL 529
ACHN = tested on: ACHN
SNB-75 = tested on: SNB-75
KM12 = tested on: KM12
SR = tested on: SR
SF-539 = tested on: SF-539
SK-MEL-28 = tested on: SK-MEL-28
SF-268 = tested on: SF-268
SN12C = tested on: SN12C
RPMI-8226 = tested on: RPMI-8226
CAKI-1 = tested on: CAKI-1
SNB-78 = tested on: SNB-78
EKVX = tested on: EKVX
HCT-116 = tested on: HCT-116
SW-620 = tested on: SW-620
NCI-H226 = tested on: NCI-H226
NCI-H460 = tested on: NCI-H460
HL-60 = tested on: HL-60
A498 = tested on: A498
OVCAR-5 = tested on: OVCAR-5
RXF 631 = tested on: RXF 631
TK-10 = tested on: TK-10
DMS-114 = tested on: DMS-114
RXF 393 = tested on: RXF 393
OVCAR-8 = tested on: OVCAR-8
Malme-3M = tested on: Malme-3M
SK-MEL-2 = tested on: SK-MEL-2
UACC-62 = tested on: UACC-62
SK-MEL-5 = tested on: SK-MEL-5
U-251 = tested on: U-251
IGROV-1 = tested on: IGROV-1
KM-20L2 = tested on: KM-20L2
SNB-19 = tested on: SNB-19
DLD-1 = tested on: DLD-1
HOP-18 = tested on: HOP-18
SK-OV-3 = tested on: SK-OV-3
NCI-H522 = tested on: NCI-H522
MOLT-4 = tested on: MOLT-4
LOX IMVI = tested on: LOX IMVI
COLO 205 = tested on: COLO 205
HCC 2998 = tested on: HCC 2998
786-0 = tested on: 786-0
UACC-257 = tested on: UACC-257
OVCAR-3 = tested on: OVCAR-3
XF498 = tested on: XF498
M14 = tested on: M14
HCT-15 = tested on: HCT-15
CCRF-CEM = tested on: CCRF-CEM

SMILES: CS/C(=C(\S)c1ccccc1)c1ccccc1
- GI50 (M19-MEL): > 100 µM (inactive)
- GI50 (HT-29): > 100 µM (inactive)
- GI50 (DMS-273): > 100 µM (inactive)
- GI50 (K562): > 100 µM (inactive)
- GI50 (UO-31): > 100 µM (inactive)
- GI50 (NCI-H23): > 100 µM (inactive)
- GI50 (OVCAR-4): > 87.1 µM (inactive)
- GI50 (HOP-62): > 100 µM (inactive)
- GI50 (HOP-92): > 100 µM (inactive)
- GI50 (SF-295): > 100 µM (inactive)
- GI50 (A549): > 100 µM (inactive)
- GI50 (LXFL 529): > 100 µM (inactive)
- GI50 (ACHN): > 100 µM (inactive)
- GI50 (SNB-75): > 100 µM (inactive)
- GI50 (KM12): > 100 µM (inactive)
- GI50 (SR): 50.6 µM (inactive)
- GI50 (SF-539): > 100 µM (inactive)
- GI50 (SK-MEL-28): > 100 µM (inactive)
- GI50 (SF-268): > 100 µM (inactive)
- GI50 (SN12C): > 100 µM (inactive)
- GI50 (RPMI-8226): > 100 µM (inactive)
- GI50 (CAKI-1): > 100 µM (inactive)
- GI50 (SNB-78): > 100 µM (inactive)
- GI50 (EKVX): > 100 µM (inactive)
- GI50 (HCT-116): > 100 µM (inactive)
- GI50 (SW-620): > 100 µM (inactive)
- GI50 (NCI-H226): > 100 µM (inactive)
- GI50 (NCI-H460): > 100 µM (inactive)
- GI50 (HL-60): > 100 µM (inactive)
- GI50 (A498): > 100 µM (inactive)
- GI50 (OVCAR-5): > 100 µM (inactive)
- GI50 (RXF 631): > 100 µM (inactive)
- GI50 (TK-10): > 100 µM (inactive)
- GI50 (DMS-114): > 100 µM (inactive)
- GI50 (RXF 393): > 91.2 µM (inactive)
- GI50 (OVCAR-8): > 100 µM (inactive)
- GI50 (Malme-3M): > 100 µM (inactive)
- GI50 (SK-MEL-2): > 100 µM (inactive)
- GI50 (UACC-62): > 100 µM (inactive)
- GI50 (SK-MEL-5): > 100 µM (inactive)
- GI50 (U-251): > 100 µM (inactive)
- GI50 (IGROV-1): > 100 µM (inactive)
- GI50 (KM-20L2): > 31.6 µM (inactive)
- GI50 (SNB-19): > 100 µM (inactive)
- GI50 (DLD-1): > 100 µM (inactive)
- GI50 (HOP-18): > 100 µM (inactive)
- GI50 (SK-OV-3): > 100 µM (inactive)
- GI50 (NCI-H522): > 100 µM (inactive)
- GI50 (MOLT-4): > 10 µM (inactive)
- GI50 (LOX IMVI): > 100 µM (inactive)
- GI50 (COLO 205): > 100 µM (inactive)
- GI50 (HCC 2998): > 100 µM (inactive)
- GI50 (786-0): > 100 µM (inactive)
- GI50 (UACC-257): > 100 µM (inactive)
- GI50 (OVCAR-3): > 100 µM (inactive)
- GI50 (XF498): > 100 µM (inactive)
- GI50 (M14): > 100 µM (inactive)
- GI50 (HCT-15): > 100 µM

SMILES: COc1ccc(NCC#N)cc1
- GI50 (M19-MEL): > 100 µM (inactive)
- GI50 (HT-29): > 100 µM (inactive)
- GI50 (DMS-273): > 100 µM (inactive)
- GI50 (K562): > 100 µM (inactive)
- GI50 (UO-31): > 100 µM (inactive)
- GI50 (NCI-H23): > 100 µM (inactive)
- GI50 (HOP-92): > 100 µM (inactive)
- GI50 (SF-295): > 100 µM (inactive)
- GI50 (A549): > 100 µM (inactive)
- GI50 (LXFL 529): > 100 µM (inactive)
- GI50 (ACHN): > 100 µM (inactive)
- GI50 (SNB-75): 76.2 µM (inactive)
- GI50 (KM12): > 100 µM (inactive)
- GI50 (SR): > 100 µM (inactive)
- GI50 (SF-539): > 100 µM (inactive)
- GI50 (SK-MEL-28): > 100 µM (inactive)
- GI50 (SF-268): > 100 µM (inactive)
- GI50 (SN12C): > 100 µM (inactive)
- GI50 (RPMI-8226): > 100 µM (inactive)
- GI50 (SNB-78): > 100 µM (inactive)
- GI50 (EKVX): > 100 µM (inactive)
- GI50 (HCT-116): > 100 µM (inactive)
- GI50 (SW-620): > 100 µM (inactive)
- GI50 (NCI-H460): > 100 µM (inactive)
- GI50 (HL-60): 52.8 µM (inactive)
- GI50 (A498): > 100 µM (inactive)
- GI50 (OVCAR-5): > 100 µM (inactive)
- GI50 (RXF 631): > 100 µM (inactive)
- GI50 (TK-10): > 100 µM (inactive)
- GI50 (DMS-114): > 100 µM (inactive)
- GI50 (RXF 393): > 100 µM (inactive)
- GI50 (OVCAR-8): > 100 µM (inactive)
- GI50 (Malme-3M): > 100 µM (inactive)
- GI50 (SK-MEL-2): > 100 µM (inactive)
- GI50 (UACC-62): 83.4 µM (inactive)
- GI50 (SK-MEL-5): > 100 µM (inactive)
- GI50 (U-251): > 100 µM (inactive)
- GI50 (IGROV-1): > 100 µM (inactive)
- GI50 (KM-20L2): > 100 µM (inactive)
- GI50 (SNB-19): > 100 µM (inactive)
- GI50 (DLD-1): > 100 µM (inactive)
- GI50 (HOP-18): > 100 µM (inactive)
- GI50 (SK-OV-3): > 100 µM (inactive)
- GI50 (NCI-H522): > 100 µM (inactive)
- GI50 (MOLT-4): > 100 µM (inactive)
- GI50 (LOX IMVI): > 100 µM (inactive)
- GI50 (CCRF-CEM): > 100 µM (inactive)
- GI50 (COLO 205): > 100 µM (inactive)
- GI50 (HCC 2998): > 100 µM (inactive)
- GI50 (786-0): 25.1 µM (inactive)
- GI50 (UACC-257): > 100 µM (inactive)
- GI50 (OVCAR-3): > 100 µM (inactive)
- GI50 (XF498): > 100 µM (inactive)
- GI50 (M14): > 100 µM (inactive)
- GI50 (HCT-15): > 100 µM

SMILES: CN1C/C(=C\c2ccc(C(=O)O)cc2)C(=O)/C(=C/c2ccc(C(=O)O)cc2)C1
- GI50 (M19-MEL): > 100 µM (inactive)
- GI50 (HT-29): > 100 µM (inactive)
- GI50 (DMS-273): > 100 µM (inactive)
- GI50 (K562): > 100 µM (inactive)
- GI50 (UO-31): > 100 µM (inactive)
- GI50 (NCI-H23): > 100 µM (inactive)
- GI50 (OVCAR-4): > 100 µM (inactive)
- GI50 (HOP-62): > 100 µM (inactive)
- GI50 (HOP-92): > 100 µM (inactive)
- GI50 (SF-295): > 100 µM (inactive)
- GI50 (A549): > 100 µM (inactive)
- GI50 (LXFL 529): > 100 µM (inactive)
- GI50 (ACHN): > 100 µM (inactive)
- GI50 (SNB-75): > 100 µM (inactive)
- GI50 (KM12): > 100 µM (inactive)
- GI50 (SR): > 100 µM (inactive)
- GI50 (SF-539): > 100 µM (inactive)
- GI50 (SK-MEL-28): > 100 µM (inactive)
- GI50 (SF-268): > 100 µM (inactive)
- GI50 (SN12C): > 100 µM (inactive)
- GI50 (RPMI-8226): > 100 µM (inactive)
- GI50 (CAKI-1): > 100 µM (inactive)
- GI50 (SNB-78): > 100 µM (inactive)
- GI50 (EKVX): > 100 µM (inactive)
- GI50 (HCT-116): > 100 µM (inactive)
- GI50 (SW-620): > 100 µM (inactive)
- GI50 (NCI-H226): > 100 µM (inactive)
- GI50 (NCI-H460): > 100 µM (inactive)
- GI50 (HL-60): > 100 µM (inactive)
- GI50 (A498): > 100 µM (inactive)
- GI50 (OVCAR-5): > 100 µM (inactive)
- GI50 (RXF 631): > 100 µM (inactive)
- GI50 (TK-10): > 100 µM (inactive)
- GI50 (DMS-114): > 100 µM (inactive)
- GI50 (RXF 393): > 100 µM (inactive)
- GI50 (OVCAR-8): > 100 µM (inactive)
- GI50 (Malme-3M): > 100 µM (inactive)
- GI50 (SK-MEL-2): > 100 µM (inactive)
- GI50 (UACC-62): > 100 µM (inactive)
- GI50 (SK-MEL-5): > 100 µM (inactive)
- GI50 (U-251): > 100 µM (inactive)
- GI50 (IGROV-1): > 100 µM (inactive)
- GI50 (KM-20L2): > 100 µM (inactive)
- GI50 (DLD-1): > 100 µM (inactive)
- GI50 (HOP-18): > 100 µM (inactive)
- GI50 (SK-OV-3): > 100 µM (inactive)
- GI50 (MOLT-4): > 100 µM (inactive)
- GI50 (LOX IMVI): > 100 µM (inactive)
- GI50 (CCRF-CEM): > 100 µM (inactive)
- GI50 (COLO 205): > 100 µM (inactive)
- GI50 (HCC 2998): > 100 µM (inactive)
- GI50 (786-0): > 100 µM (inactive)
- GI50 (UACC-257): > 100 µM (inactive)
- GI50 (OVCAR-3): > 100 µM (inactive)
- GI50 (XF498): > 100 µM (inactive)
- GI50 (M14): > 100 µM (inactive)
- GI50 (HCT-15): > 100 µM
